Consider two compounds from EP0100257A2, “Aminoalkyl naphthalene derivatives, their salts, process for their preparation and the therapeutical use of these derivatives and salts” (DELALANDE S.A., priority 1982, dated 1984).

Data set [1] can be described thus: Acute toxicity (DL 50) in mice. The conditions noted are these: in vivo, ip, mouse, i.p., read-out: DL 50 souris. An excerpt:
Pour illustrer l'invention, on a rassemblé dans le tableau III ci-après les résultats obtenus dans ces deux tests avec quelques composés selon l'invention. Ce tableau donne en outre la toxicité aiguë (DL 50) des composés testés.

The test system of data set [2] is souris. The experiment in a line: Phenylbenzoquinone test (analgesic activity), protocol of Siegmund. The class given is in vivo. The conditions noted are these: ip, mouse, i.p., read-out: Propriétés analgésiques DE 50.
Data set [3] concerns souris. Description: Antagonism of reserpine-induced ptosis (antidepressant activity), protocol of Gouret and Thomas. The settings on record: ip, 1 h; mouse, i.p.; ptosis observed one hour after reserpine 2 mg/kg i.v.; read-out: Propriétés antidépressives DE 50. The class given is in vivo.
Method: L'activité antidépressive a quant à elle été mise en évidence chez la souris par le test de l'antagonisme vis-à-vis du ptosis observé une heure après une injection intraveineuse (2 mg/kg) de réserpine chez la souris selon le protocole décrit par C.

For the compound `CN(C)Cc1cc(-c2ccccc2)c2ccccc2c1` [Numéro de code 2, chlorhydrate de N,N-diméthylaminométhyl-2 phényl-4 naphtalène], the LD50 in data set [1] stood at 70 mg/kg. In addition, the values for the ED50 in the data set on souris [2] and in the data set on souris [3] were 4.5 mg/kg and 5.3 mg/kg, respectively.

As to `NCCc1cc(-c2ccccc2)c2ccccc2c1` [Numéro de code 9, chlorhydrate de l'(amino-2) éthyl-2 phényl-4 naphtalène], the LD50 in data set [1] was 58 mg/kg. In addition, the ED50 with souris [2] came out at 2.2 mg/kg; in the data set with souris [3], 3 mg/kg.
